Measurements reported in patent US10945612B2, “Assessing endothelial function using a blood pressure cuff” (The Regents of the University of California, priority 2014, dated 2021).
“Also recorded” adds a separate entry of the source.

Experiments:
brachial artery = test: Cuff-based measurement of vasodilation (pulse amplitude relative to baseline) after sublingual nitroglycerin; format: in vivo, human
Procedure: Three individuals in the age-range of 28-38 were examined. All subjects had Framingham risk scores of 1% or less, and had no history of cardiovascular disease. Each individual was assessed at least three times before and after RH induced by five minutes of suprasystolic cuff occlusion. At least one additional measurement was made using the same protocol, except without cuff inflation. Sensitivity to a 0.4 mg dose of sublingual NG was assessed three times in two individuals.
Sensitivity to a 0.4 mg dose of sublingual NG was assessed three times in two individuals. In the analysis that follows, all of the datasets are pooled by stimulus. This addresses the question: Can the method measure changes in arterial tone due to vasorelaxatory stimuli and with what sensitivity?
A single quantity relating to the recorded pressure data, the pulse amplitude, was studied and it was posited that this is proportional to the arterial area. During the post stimulus interval, pressure data from the cuff were recorded approximately every 80 seconds, for a period of 30 seconds. During each recording interval, the cuff was inflated to 70 mm Hg, which was always below the measured diastolic pressure of the subject. To quantify the observed response, the mean of the pulse quantity (in this case, amplitude) during the response interval was divided by the mean value of the same quantity during the baseline interval. FIG. 10 illustrates the results.
v) The stimulus is applied. This is either 1-5 min of cuff occlusion to suprasystolic pressure Ps (for studies of endothelial function) or a dose of sublingual NG (for studies of endothelium-independent vasodilation).
(vi) After Tp=45 s have elapsed following cuff release or drug administration, a series of up to Nr=10 repeat measurement intervals ensue. In each interval, the cuff is inflated to Pm for Tm seconds, after which it is deflated for Tw seconds. This large number of repeat measurements (Nr)) is required only when one wishes to record the return of the vessel toward baseline.
[formula] and reported, e.g., to the user. […]

smooth muscle = settings: 400 μg sublingual dose; Feldman et al. (1979), Adams et al. (1998); cited from earlier work
NO synthase = test: Cuff single pulse waveforms after endothelial stimulation with NO synthase blocked by L-NAME; format: in vivo, human; settings: cuff inflated to 70 mm Hg; NO synthase blocked via L-NAME
From the text: Both the amplitude and slope of the rising edge of the pulse increase markedly after endothelial stimulation.
In an artery with intact endothelial function, both pulse height (maximal cross-sectional arterial area) and compliance (maximum slope of the rising edge) increase markedly over baseline. […] FIG. 4 illustrates how a five minute cuff occlusion and the ensuring reactive hyperemia lead to major increases in area change per pulse and the maximum derivative of the area per pulse. Both metrics return to baseline levels after 20 minutes. FIG. 5 confirms the repeatability of the protocol by illustrating the effects of a series of two cuff occlusion periods. We see from FIG. 6 that only a small slow drift in the measured quantities occurs when no reactive hyperemic stimulus is applied.

SMILES | cDmax % (brachial artery; 400 μg sublingual NG, maximal vasodilation by the cuff-based method, relative to baseline) [%] | Mean ± SEM of maximum response over all data sets (dilation response) (brachial artery; 400 μg sublingual NG, ratio to baseline, pooled data sets) | Mean ± SEM of maximum Response over all data sets (amplitude response) (brachial artery; 0.4 mg sublingual NG, mean pulse amplitude in response interval divided by baseline, cuff at 70 mm Hg, pooled data sets) | smooth muscle dilation (smooth muscle) | compliance (maximum slope of the rising edge) increase over baseline after endothelial stimulation (NO synthase) | pulse height (maximal cross-sectional arterial area) increase over baseline after endothelial stimulation (NO synthase)
O=[N+]([O-])OCC(CO[N+](=O)[O-])O[N+](=O)[O-] [NG, nitroglycerin] | 70 | 1.70 ± 0.036 | 1.70 ± 0.036 | maximal smooth muscle dilation | – | –
COC(=O)[C@@H](N)CCCNC(=N)N[N+](=O)[O-] [L-NAME] | – | – | – | – | greatly attenuates this response; also recorded: greatly attenuated | greatly attenuates this response; also recorded: greatly attenuated
